Data from patent US12508233B2, “Graft copolymers, methods of forming graft copolymers, and methods of use thereof” (Vanderbilt University, priority 2018, dated 2025).
pEC50: −log10 of the molar value.

System: THP-1 ISG reporter cells
Assay: THP-1 ISG reporter cell assay in the context of cGAMP delivery
Format: cell-based
Conditions: free cGAMP, dashed line in FIG. 10C; read-out: Half-maximal response of cGAMP
Excerpt: The graft copolymers disclosed herein were next tested for bioactivity and drug delivery properties. As illustrated in FIGS. 9A-B, hemolysis, a measure of endosomolytic activity, increases with increasing MW and decreases with increasing hydrophilic weight fraction. Turning to FIGS. 10A-D, THP-1 ISG reporter cells were used to determine cellular uptake and cGAMP delivery.

## Nc1nc2c(ncn2[C@@H]2O[C@@H]3COP(=O)(O)O[C@H]4[C@@H](O)[C@H](n5cnc6c(N)ncnc65)O[C@@H]4COP(=O)(O)O[C@@H]2[C@@H]3O)c(=O)[nH]1 [cGAMP]
  pEC50: 4.40
